# Values of other authors as cited in patent US8568753B2, “Delivery system” (Starpharma Pty Limited, priority 2005, dated 2013).
# Test system: herpes simplex virus type 2 (HSV-2), Strain G
# Conditions: previous studies
substance,measurement,setting,value
nonoxynol-9,relative susceptibility to HSV-2 infection vs control animals,,29.7 times
same,animals infected with HSV-2,low-dose inoculum,29 out of 42
